According to paper PMC2610245 (Drug metabolism and disposition: the biological fate of …, 2008):

Columns and labels:
P450 2C9 [1] = conditions: in humans; ref Obach et al., 2007; cited from earlier work
P450 2C9 Baculosomes = P450 2C9 Baculosomes (Homo sapiens, UniProt P11712); test: Partition ratio by titration method; conditions: 30 min pre-incubation, (S)-flurbiprofen as probe substrate
P450 2C9 [2] = molecular target: T1, P450 2C9 (Homo sapiens, UniProt P11712); test: Metabolic stability by substrate depletion; conditions: 1 μM substrate, 0.04 μM P450 2C9, NADPH 2 mM, 37°C
T1 sequence (P11712 whole entry): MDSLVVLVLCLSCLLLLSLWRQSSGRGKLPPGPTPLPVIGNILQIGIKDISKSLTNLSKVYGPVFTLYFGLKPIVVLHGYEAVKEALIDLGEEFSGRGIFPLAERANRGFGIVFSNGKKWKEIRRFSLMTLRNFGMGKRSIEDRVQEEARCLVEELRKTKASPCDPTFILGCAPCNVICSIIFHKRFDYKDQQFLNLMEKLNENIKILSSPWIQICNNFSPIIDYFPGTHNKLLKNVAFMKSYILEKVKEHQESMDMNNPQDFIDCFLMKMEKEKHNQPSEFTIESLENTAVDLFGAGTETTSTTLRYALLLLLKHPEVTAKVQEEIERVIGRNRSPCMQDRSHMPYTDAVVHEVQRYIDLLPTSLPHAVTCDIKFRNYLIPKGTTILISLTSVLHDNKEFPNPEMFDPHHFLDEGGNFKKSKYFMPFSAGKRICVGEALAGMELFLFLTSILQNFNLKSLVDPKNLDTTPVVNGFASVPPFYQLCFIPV

P450 2C9 [3] = molecular target: T1, P450 2C9; test: P450 2C9 inactivation assay; conditions: Hill equation
[4] = ref Kumar et al., 2002; Mano et al., 2007; cited from earlier work
P450 2C9 [5] = molecular target: T1, P450 2C9; test: in vitro; conditions: recombinant enzyme, pH 7.4, in vitro half-life (t1/2)

Sequence of P450 2C9 Baculosomes (P11712 whole entry): as above

For CC(=O)C[C@@H](c1ccccc1)c1c(O)c2ccccc2oc1=O [(S)-warfarin], the “fraction metabolized through P450 2C9 (fm2C9)” value (P450 2C9 [1]) is given as 0.91.

With CC(C(=O)O)c1ccc(C(=O)c2cccs2)cc1 (racemic) [(±)-Suprofen, (±)-suprofen] the partition ratio (P450 2C9 Baculosomes) was 98, the “turnover number (partition ratio + 1)” value (P450 2C9 Baculosomes) was 99 and the “in vitro half-life (t1/2)” value (P450 2C9 [2]) was 50 min. For the same compound, the “n (Hill coefficient)” value (P450 2C9 [3]; probe substrate (S)-flurbiprofen) was 1.4 and the “n (Hill coefficient)” value (P450 2C9 [3]; probe substrate diclofenac) was 1.3.

In the case of O=C(O)Cc1ccccc1Nc1c(Cl)cccc1Cl [diclofenac], the “cleared by direct glucuronidation of the carboxylate functional groups” value [4] is given as “roughly 50%”.

Compound C[C@@H](C(=O)O)c1ccc(C(=O)c2cccs2)cc1 [(R)-suprofen] has a half-life at 1 μM (P450 2C9 [5]) of 35 to 38 min.

For C[C@H](C(=O)O)c1ccc(C(=O)c2cccs2)cc1 [(S)-suprofen], the half-life at 1 μM (P450 2C9 [5]) was 35 to 38 min.

In the case of C[C@H](C(=O)O)c1ccc(-c2ccccc2)c(F)c1 [(S)-flurbiprofen], the “cleared by direct glucuronidation of the carboxylate functional groups” value [4] is listed as “roughly 50%”.

Work on O=C(O)COc1ccc(C(=O)c2cccs2)c(Cl)c1Cl [Tienilic Acid, Tienilic acid] yielded a half-life at 1 μM (P450 2C9 [5]) of 5 min.
